From PMC8909834, “An Orally Bioavailable and Highly Efficacious Inhibitor of CDK9/FLT3 for the Treatment of Acute Myeloid Leukemia” (Cancers, 2022)
Like-named read-outs stand apart in the source and are kept apart here.

Assays:
[1] = Drug concentration in plasma and tumor 4 h post final dose; type: in vivo, MV4-11 tumor-bearing mice; details: BALB/c nude (nu/nu), mouse, oral; for concentration at 4 h: 4 h post final dose
Protocol: To investigate the effect of CDDD11-8 on its targets in vivo, MV4-11 tumor-bearing mice (n = 3) were treated with the vehicle, CDDD11-8 (75 and 125 mg/kg), orally for 5 days. Four hours post final dose, tumor samples were collected and lysates prepared for western blot analysis (Figure 4C, Supplementary Figure S19). […] These were accompanied by changes in the levels of the proteins involved in cancer cell survival.
We also determined the concentration of CDDD11-8 in the plasma and tumor (Figure 4D, Supplementary Table S5). […] The tumor concentration from the 75 mg/kg dose was 2.5-times the plasma concentration. However, the plasma and tumor concentrations from 125 mg/kg were similar.

[2] = Partition coefficient by shake flask assay; type: physicochemical; details: octanol/aqueous phase, pH 7.4, read-out: Partition Coefficient LogD7.4 (octanol)
[3] = Blood to plasma ratio; type: in vitro ADME; details: mouse, in mice
[4] = system: HL60; experiment: Cell viability assay (resazurin); type: cell-based; details: Homo sapiens, HL-60; HL60, 72 h, mean ± SD
Protocol: (§1) Cell culture. MV4-11, HL60, K-562, THP-1, MO91, and U937 cell lines were from the ATCC (Rockville, MD, USA); MOLM-13, NB4, and PL21 cell lines were from the DSMZ (Braunschweig, Germany); and Jurkat cells were from the ECACC (Salisbury, UK). All cells were cultured in RPMI medium (Sigma-Aldrich) supplemented with 10% to 20% of heat-inactivated fetal bovine serum (Sigma-Aldrich), and cells were maintained at 37 °C, 5% CO2, and 95% humidity. All the cell lines were tested to be mycoplasma-negative using MycoAlert^TM mycoplasma detection kit (Lonza, Derrimut, VIC, Australia).
(§2) Cell viability assay. The viability of leukemia cell lines after incubation with CDDD11-8 was determined by their ability to reduce resazurin, as described previously. Cells (5 × 10^3) were seeded into 96-well plates (Corning Inc., Corning, NY, USA) and incubated overnight at 37 °C. Subsequently, they were incubated with CDDD11-8 (concentrations ranging from 0.003 µM to 31.6 µM; using three-fold serial dilutions) or DMSO (final concentration of 0.1%) for 72 h. Afterwards, cells were incubated with 20 µL of resazurin (0.1 mg/mL in PBS) for 4 h at 37 °C under 5% CO2, and the fluorescence intensities were measured using an EnVision® multilabel plate reader at 570 nm (excitation)/585 nm (emission). The concentration required to inhibit cellular growth by 50% (GI50) was determined using the same non-linear regression model as shown above, with Ar (%) = % cell viability, and IC50 replaced with GI50.

[5] = system: NB4; experiment: Cell viability assay (resazurin); type: cell-based; details: Homo sapiens, NB-4; NB4, 72 h, mean ± SD
Protocol: as §1, §2

[6] = system: THP-1; experiment: Cell viability assay (resazurin); type: cell-based; details: THP-1, 72 h, mean ± SD
Protocol: as §1, §2

[7] = system: U937; experiment: Cell viability assay (resazurin); type: cell-based; details: Homo sapiens, U-937; U937, 72 h, mean ± SD
Protocol: as §1, §2

[8] = system: PL21; experiment: Cell viability assay (resazurin); type: cell-based; details: PL21, 72 h, mean ± SD
Protocol: as §1, §2

[9] = system: MOLM-13; experiment: Cell viability assay (resazurin); type: cell-based; details: MOLM-13, 72 h, mean ± SD
Protocol: as §1, §2

[10] = system: JURKAT; experiment: Cell viability assay (resazurin); type: cell-based; details: Homo sapiens, 72 h, mean ± SD
Protocol: as §1, §2

`Cc1cnc(N[C@H]2CC[C@H](N)CC2)nc1-c1cnc2ccc(-c3ccccc3)cn12` [CDDD11-8] showed a concentration at 4 h ([1]; plasma, 75 mg/kg, 75 mg/kg orally 5 days, mouse 1, read-out: Plasma concentration) of 490 ng/mL, a concentration at 4 h ([1]; plasma, 75 mg/kg, 75 mg/kg orally 5 days, mouse 2, read-out: Plasma concentration) of 441 ng/mL and a concentration at 4 h ([1]; plasma, 75 mg/kg, 75 mg/kg orally 5 days, mouse 3, read-out: Plasma concentration) of 1090 ng/mL. It also gave a concentration at 4 h ([1]; plasma, 125 mg/kg, 125 mg/kg orally 5 days, mouse 1, read-out: Plasma concentration) of 1440 ng/mL, a concentration at 4 h ([1]; plasma, 125 mg/kg, 125 mg/kg orally 5 days, mouse 2, read-out: Plasma concentration) of 2850 ng/mL and a concentration at 4 h ([1]; plasma, 125 mg/kg, 125 mg/kg orally 5 days, mouse 3, read-out: Plasma concentration) of 1800 ng/mL. For the same molecule, the concentration at 4 h ([1]; tumor, 75 mg/kg, 75 mg/kg orally 5 days, mouse 1, read-out: Tumor concentration) was 2140 ng/g, the concentration at 4 h ([1]; tumor, 75 mg/kg, 75 mg/kg orally 5 days, mouse 2, read-out: Tumor concentration) was 1780 ng/g and the concentration at 4 h ([1]; tumor, 75 mg/kg, 75 mg/kg orally 5 days, mouse 3, read-out: Tumor concentration) was 1480 ng/g. It also gave a Kp at 4 h ([1]; tumor, 75 mg/kg, read-out: tumor concentration relative to plasma concentration) of 2.5, a concentration at 4 h ([1]; tumor, 125 mg/kg, 125 mg/kg orally 5 days, mouse 1, read-out: Tumor concentration) of 1680 ng/g and a concentration at 4 h ([1]; tumor, 125 mg/kg, 125 mg/kg orally 5 days, mouse 2, read-out: Tumor concentration) of 2310 ng/g. It also gave a concentration at 4 h ([1]; tumor, 125 mg/kg, 125 mg/kg orally 5 days, mouse 3, read-out: Tumor concentration) of 1850 ng/g, a logD [2] of 1.87 and a blood plasma ratio [3] of 0.71. For the same molecule, the GI50 [4] was 475 ± 25 nM, the GI50 [5] was 473 ± 107 nM and the GI50 ([6]; Homo sapiens) was 460 nM. For the same molecule, the GI50 [6] was 459 ± 40 nM, the GI50 [7] was 713 ± 93 nM and the GI50 [8] was 339 ± 34 nM. The GI50 ([8]; PL-21, 72 h) was 340 nM, the GI50 ([9]; Homo sapiens) was < 100 nM and the GI50 [9] was 70 ± 20 nM. It also gave a GI50 [10] of 599 ± 90 nM.
